The test system of assay [1] is cumulus-oocyte complexes (cumulus expansion). The assay is described as follows: Cumulus expansion assay in vitro. It is filed as cell-based, mice. As to conditions: in competition with PGE2. As for the experimental part:
Folliculogenesis is induced in immature female mice (strain: CD1 (ICR) from Charles River) at an age of 14-18 days by a single dose (intraperitoneal) of 10 I.U. of PMSG (Pregnant Mare Serum Gonadotropine; Sigma G-4877, Lot 68H0909). 47-50 hours after the injection, the ovaries are removed and the cumulus-oocyte complexes are removed. The cumulus complex is not yet expanded at this stage.
The cumulus-oocyte complexes are then incubated with prostaglandin E2 (PGE2) (0.3 μM), vehicle control (ethanol) or test substances for 20-24 hours. Medium: alpha-MEM medium with 0.1 mM IBMX, pyruvates (0.23 mM) glutamines (2 mM), pen/strep 100 IU/ml pen. and 100 μg/ml strep.) and HSA (8 mg/ml)). Cumulus expansion is then established through the division into four stages (according to Vanderhyden et al. Dev Biol. 1990 August; 140(2):307-317).

The target in assay [2] is T1, EP2 subtype of the human PGE2 receptor (Homo sapiens, UniProt P43116).
T1 construct: host or cells: cells in a cell culture plate
The assay is described as follows: cAMP antagonism assay (HTRF, PGE2-stimulated cells). It is filed as cell-based. Particulars: in presence of PGE2. As for the experimental part:
(§1) The binding of PGE2 to the EP2 subtype of the human PGE2 receptor induces activation of membrane-associated adenylate cyclases and leads to the formation of cAMP. In the presence of the phosphodiesterase inhibitor IBMX, cAMP which has accumulated due to this stimulation and been released by cell lysis is employed in a competitive detection method. In this assay, the cAMP in the lysate competes with cAMP-XL665 for binding of an Eu cryptate-labelled anti-cAMP antibody.
(§2) The two signals are measured in a suitable measuring instrument with a time lag, i.e. after the background fluorescence has declined.
(§3) The substance solutions (0.75 μl) introduced into an assay plate and 30% DMSO are dissolved in 16 μl of a KRSB+IBMX stimulation solution (1× Krebs-Ringer Bicarbonate Buffer; Sigma-Aldrich # K-4002; including 750 μM 3-isobutyl-1-methylxanthine Sigma-Aldrich # I-7018), and then 15 μl thereof are transferred into a media-free cell culture plate which has been washed with KRSB shortly beforehand.
After preincubation at room temperature (RT) for 30 minutes, 5 μl of a 4×PGE2 solution (11 nM) are added, and incubation is carried out in the presence of the agonist at RT for a further 60 min (volume: ˜20 μl) before the reaction is then stopped by adding 5 μl of lysis buffer and incubated at RT for a further 20 min (volume: 25 μl). The cell lysate is then transferred into a measuring plate and measured in accordance with the manufacturer's information (cyclic AMP kit Cisbio International # 62AMPPEC).
For orientation: TR-FRET usually uses a lanthanide donor and a delayed reading to cut background.

The target of assay [3] is T1, EP2 subtype of the human PGE2 receptor. The assay is described as follows: cAMP agonism assay (cellular agonism test). As to conditions: without PGE2. It is filed as cell-based. As to the method: as §1, §2, §3
After incubation at room temperature (RT; volume: ˜15 μl) for 60 minutes, the reaction is then stopped by adding 5 μl of lysis buffer and incubated at RT for a further 20 min (volume: ˜20 μl). The cell lysate is then transferred into a measuring plate and measured in accordance with the manufacturer's information (cyclic AMP kit Cisbio International # 62AMPPEC).

T1 sequence (P43116 whole entry): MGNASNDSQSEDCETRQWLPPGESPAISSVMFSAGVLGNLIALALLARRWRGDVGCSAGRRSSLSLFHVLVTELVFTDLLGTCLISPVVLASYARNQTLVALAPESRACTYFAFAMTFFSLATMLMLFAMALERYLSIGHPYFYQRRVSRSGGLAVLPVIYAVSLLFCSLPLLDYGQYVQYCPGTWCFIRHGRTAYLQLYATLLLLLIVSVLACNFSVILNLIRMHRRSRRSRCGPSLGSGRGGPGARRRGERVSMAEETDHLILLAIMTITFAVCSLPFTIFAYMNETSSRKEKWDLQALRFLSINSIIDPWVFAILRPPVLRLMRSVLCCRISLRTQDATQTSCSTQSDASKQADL

With `CC(C)Oc1ccc2c(=O)c3cc(C(=O)O)ccc3oc2c1` [AH 6809, reference compound], in assay [1] (concentration 100-200 μM), the “inhibition of cumulus expansion” value is given as approximately 30%. Broadly, the IC50 is the concentration that inhibits the measured activity by half. As to `COc1cc(C(=O)NCCc2c(C)[nH]c3c(F)ccc(C)c23)cc(OC)c1OC` [Example 2, N-[2-(7-Fluoro-2,4-dimethyl-1H-indol-3-yl)ethyl]-3,4,5-trimethoxybenzamide], the IC50 in assay [2] is 6800 nM.

Regarding `Cc1[nH]c2c(F)ccc(C)c2c1CCNC(=O)c1ccc(C(F)(F)F)cc1` [Example 6, N-[2-(7-Fluoro-2,4-dimethyl-1H-indol-3-yl)ethyl]-4-trifluoromethylbenzamide], the IC50 in assay [2] was determined as 1500 nM. As a reminder, the inhibition is the drop in the measured response relative to a control, in per cent. Read a low inhibition as a response near the control. Regarding `Cc1[nH]c2c(F)ccc(C)c2c1CCNC(=O)c1ccc(-c2ccc(F)cc2)cc1` [Example 29, 4′-Fluorobiphenyl-4-carboxylic acid [2-(7-fluoro-2,4-dimethyl-1H-indol-3-yl)ethyl]amide], in assay [3], the “effect in the cellular agonism test” value is listed as “no inhibition”. The IC50 in assay [2] is 1200 nM. Besides, in assay [1] (Mus musculus, concentration 10 μM), the inhibition at 10 µM was approximately 20%.
